Assay: xn = mol fraction of the nth substance listed

Clc1ccccc1 + Cc1ccccc1
Settings	viscosity [mPa·s]
303.15 K, 101 kPa, x2 = 0.8959	0.5561
303.15 K, 101 kPa, x2 = 0.8995	0.5584
303.25 K, 101.33 kPa, x1 = 0.7	0.7203
303.35 K, 101.33 kPa, x1 = 0.3	0.6272
303.55 K, 101.33 kPa, x1 = 0.1	0.5816
303.75 K, 101.33 kPa, x1 = 0.4	0.6426
304.15 K, 101.33 kPa, x1 = 0.2	0.6008
308.15 K, 101 kPa, x2 = 0.101	0.6704
308.15 K, 101 kPa, x2 = 0.2035	0.6518
308.15 K, 101 kPa, x2 = 0.3026	0.6334
308.15 K, 101 kPa, x2 = 0.4005	0.6181
308.15 K, 101 kPa, x2 = 0.5004	0.5983
308.15 K, 101 kPa, x2 = 0.6014	0.5769
308.15 K, 101 kPa, x2 = 0.7008	0.5641
308.15 K, 101 kPa, x2 = 0.8048	0.5447
308.15 K, 101 kPa, x2 = 0.8995	0.5279
313.05 K, 101.33 kPa, x1 = 0.3	0.5636
313.15 K, 101 kPa, x1 = 0.0994	0.4872
313.15 K, 101 kPa, x1 = 0.2021	0.503
313.15 K, 101 kPa, x1 = 0.2979	0.5205
313.15 K, 101 kPa, x1 = 0.3973	0.536
313.15 K, 101 kPa, x1 = 0.5013	0.5551
313.15 K, 101 kPa, x1 = 0.6023	0.5721
313.15 K, 101 kPa, x1 = 0.7024	0.5874
313.15 K, 101 kPa, x1 = 0.8007	0.6056
313.15 K, 101 kPa, x1 = 0.9047	0.6216
313.15 K, 101 kPa, x2 = 0.0961	0.6302
313.15 K, 101 kPa, x2 = 0.101	0.6317
313.15 K, 101 kPa, x2 = 0.193	0.6128
313.15 K, 101 kPa, x2 = 0.2	0.597
313.15 K, 101 kPa, x2 = 0.2035	0.6152
313.15 K, 101 kPa, x2 = 0.2907	0.5947
313.15 K, 101 kPa, x2 = 0.3026	0.5974
313.15 K, 101 kPa, x2 = 0.3894	0.5789
313.15 K, 101 kPa, x2 = 0.4	0.564
313.15 K, 101 kPa, x2 = 0.4005	0.5833
313.15 K, 101 kPa, x2 = 0.4889	0.5763
313.15 K, 101 kPa, x2 = 0.5004	0.5662
313.15 K, 101 kPa, x2 = 0.5893	0.5475
313.15 K, 101 kPa, x2 = 0.6	0.53
313.15 K, 101 kPa, x2 = 0.6014	0.545
313.15 K, 101 kPa, x2 = 0.6906	0.5414
313.15 K, 101 kPa, x2 = 0.7008	0.5312
313.15 K, 101 kPa, x2 = 0.7928	0.5159
313.15 K, 101 kPa, x2 = 0.8	0.498
313.15 K, 101 kPa, x2 = 0.8048	0.5134
313.15 K, 101 kPa, x2 = 0.8959	0.5005
313.15 K, 101 kPa, x2 = 0.8995	0.4983
313.25 K, 101.33 kPa, x1 = 0.1	0.5257
313.25 K, 101.33 kPa, x1 = 0.4	0.5837
313.35 K, 101.33 kPa, x1 = 0.2	0.5458
313.65 K, 101.33 kPa, x1 = 0.7	0.6385
322.55 K, 101.33 kPa, x1 = 0.3	0.5132
322.75 K, 101.33 kPa, x1 = 0.1	0.478
322.85 K, 101.33 kPa, x1 = 0.2	0.4964
323.15 K, 101 kPa, x2 = 0.0961	0.5575
323.15 K, 101 kPa, x2 = 0.193	0.5432
323.15 K, 101 kPa, x2 = 0.2907	0.531
323.15 K, 101 kPa, x2 = 0.3894	0.5111
323.15 K, 101 kPa, x2 = 0.4889	0.5008
323.15 K, 101 kPa, x2 = 0.5893	0.4829
323.15 K, 101 kPa, x2 = 0.6906	0.4715
323.15 K, 101 kPa, x2 = 0.7928	0.4539
323.15 K, 101 kPa, x2 = 0.8959	0.4396
323.15 K, 101.33 kPa, x1 = 0.4	0.5282

Reference: the CheMixHub viscosity set
